Data published in article PMC10644722, “Discovery of inhibitors of protein tyrosine phosphatase 1B contained in a natural products library from Mexican medicinal plants and fungi using a combination of enzymatic and in silico methods**” (Frontiers in Pharmacology, 2023).
Values joined by “and” are separate entries in the source; they are usually repeats but may differ in a detail not shown here. Equal values may be shown once. “Also recorded” adds a separate entry of the source. Read-outs that look alike come from different tables or passages of the source.

How the values were obtained:
hPTP1B1-400 = biological target: T1, hPTP1B1-400 (Homo sapiens, UniProt P18031); test: PTP1B inhibition assay (spectrophotometric, 4-nitrophenyl phosphate); type: biochemical; settings: for ΔA, activity difference between UA and the compound: absolute pIC50 difference against ursolic acid
T1 sequence (P18031 1-400): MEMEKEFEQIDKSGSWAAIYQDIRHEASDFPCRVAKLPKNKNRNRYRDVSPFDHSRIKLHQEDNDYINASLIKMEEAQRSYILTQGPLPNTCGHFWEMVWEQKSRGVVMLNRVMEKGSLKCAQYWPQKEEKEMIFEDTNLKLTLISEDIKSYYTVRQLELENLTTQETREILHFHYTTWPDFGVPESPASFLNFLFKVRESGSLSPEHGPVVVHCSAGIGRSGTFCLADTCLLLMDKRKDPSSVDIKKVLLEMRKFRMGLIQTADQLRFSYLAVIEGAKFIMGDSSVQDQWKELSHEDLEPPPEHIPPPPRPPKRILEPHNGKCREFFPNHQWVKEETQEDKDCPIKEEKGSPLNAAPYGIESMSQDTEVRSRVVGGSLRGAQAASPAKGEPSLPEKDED
Experimental: The inhibitory activity was determined as a percentage compared to the blank (Buffer) according to the following equation: %InhibitionPTP1B=1−A405s/A405b×100%, (1) where A405(s) is the ΔA of the sample (At20 − At0), A405(b) is the ΔA of the blank obtained in the same manner as that of the sample. Using the data obtained, the enzyme inhibition curve was plotted, for which the average percentage of inhibition was plotted as a function of the inhibitor concentration.

PTP1B [1] = biological target: T2, PTP1B (Homo sapiens, UniProt P18031); test: Kinetic analysis of PTP1B inhibition; type: biochemical; settings: for type of inhibition: double-reciprocal plots, global nonlinear fit; for VMAX: maximum velocity, nonlinear fit, substrate 4-NP
T2 sequence (P18031 1-400): T1 sequence (P18031 1-400)
Experimental: The conditions for preparing reagents (enzyme and substrate), incubation, and analysis of results were the same as that described in Section 2.1 ([Jiménez-Arreola et al., 2020]; [Díaz-Rojas et al., 2021]). Additional steps in the methodology are described below.
To characterize the type of inhibition exerted by 1, 3, and 6 on PTP1B, the hydrolysis of 4-NP at the sub-saturating state and increasing concentrations of each compound was measured. […] The compound concentration yielding 50% activity inhibition was interpolated from the results by fitting into a general inhibition model. The resulting set of activities was fitted globally using the non-linear regression algorithm of Levenberg–Marquardt as implemented in the Gnuplot ([Williams et al., 2017]). Each group was fitted to the kinetic equations for linear competitive, linear uncompetitive, linear non-competitive (classic), linear mixed type, parabolic competitive, parabolic uncompetitive, and parabolic non-competitive inhibition mechanisms. The best fit was ascertained by the reduced chi-squared (χ^2) value, residual distribution, and uncertainty in the parameter estimates. The best description of the inhibition data for compounds 1, 3, and 6 was obtained with Eq. 2, Eq. 3, and Eq. 4, respectively, where VMAX, KM, and KIcu, KIC, and KIU are the maximum velocity, Michaelis constant for the substrate 4-NP, and inhibition constants for each type of inhibition, respectively. v0=VMAX4NP/KM1+I/KIcu+4NP1+I/KIcu, (2) v0=VMAX4NP/KM1+I/KIC+4NP1+I/KIU, (3) v0=VMAX4NP/KM1+I/KIC+I^2/KIC2^2+4NP. (4)

ICR mice = settings: male, mouse, in vivo, 14 days
Experimental: The potential acute toxicity of compound 6 was determined according to the Lorke’s method ([Lorke, 1983]). The evaluation was performed following the Official Mexican Norm for Laboratory Animal Care and Use (NOM-062-ZOO-1999), with international conventional codes for laboratory animal use, and approved by the Institutional Committee for Care and Use of Laboratory Animals (CICUAL-FQ), Facultad de Química, UNAM (FQ/CICUAL/440/21). […]. At the end of the experiments, the mice were euthanized by hypoxia in a CO2 chamber.
Compound 6 was fed by an intragastric route in two independent phases. In each case, 12 mice were divided into four groups (n = 3). In the first stage, the animals were treated with 10, 100, and 1,000 mg/kg; in the second phase, 1,600, 2,900, and 5,000 mg/kg were administered. The control animals were fed 0.05% Tween 80® in saline solution. The weight of the animals was measured daily for 14 days at each stage. At the end of the test, all animals were euthanized to obtain the lungs, heart, kidneys, and liver to detect macroscopic organ injury.

PTP1B [2] = test system: PTP1B; design: method as in Lantz et al., 2010; Kumar et al., 2020; settings: known inhibitors of PTP1B; ref Lantz et al., 2010; Kumar et al., 2020; cited from earlier work
[3] = DoseResp model fit, Origin 8.0, axis C (mM), read-out: LOGx0 of the IC50 curve
[4] = enzyme 66 nM, 4-NP 0.125 mM, Tris-HCl pH 6.8, 20 min, room temperature, read-out: IC50
[5] = negative log of the IC50 in Molar, read-out: pIC50 (converted)
[6] = mixed type (Eq. 3) or parabolic competitive model (Eq. 4), read-out: KIC
[7] = Hill1 model fit, Origin 8.0, axis C (mM), read-out: k of the IC50 curve
[8] = negative log of the IC50 in Molar

| Molecule | IC50 (hPTP1B1-400; [3]) | ΔA, activity difference between UA and the compound (hPTP1B1-400) | IC50 (hPTP1B1-400; [4]) | IC50 (hPTP1B1-400; [5]) | also measured |
| --- | --- | --- | --- | --- | --- |
| C[C@H]1C(=O)CC[C@@H]2[C@]1(C)CC[C@H]1[C@@]2(C)CC[C@@]2(C)[C@@H]3CC(C)(C)CC[C@]3(CO)CC[C@]12C [Compound 1, Canophyllol] | 0.0332 ± 0.00257 mM | 0.2 | 0.0332 ± 3e-06 mM | 0.0331 mM | %I (hPTP1B1-400; 0.02 mM compound): 95.54 ± 1.82%; %I (hPTP1B1-400; 1 mM compound): 98.59 ± 0.28%; type of inhibition (PTP1B [1]): non-competitive inhibitor; VMAX (PTP1B [1]): 44.1 mM/min; Ki (PTP1B [1]; non-competitive model (Eq. 2), read-out: KIcu): 9 µM |
| COc1c(O)cc2ccc3cccc(O)c3c2c1OC [Compound 3, 3,4-Dimethoxy-2,5-phenanthrenediol] | 0.0477 ± 0.0982 mM | 0.34 and 0.3 | 0.0477 ± 0.0001 mM | 0.0479 mM | %I (hPTP1B1-400; 0.02 mM compound): 70.62 ± 0.58%; %I (hPTP1B1-400; 1 mM compound): 97.4 ± 0.69%; type of inhibition (PTP1B [1]): mixed-type; also recorded: mixed inhibitor; VMAX (PTP1B [1]): 56.1 mM/min; Ki (PTP1B [1]; [6]): 40 µM; Ki (PTP1B [1]; mixed type model (Eq. 3), read-out: KIU): 110 µM |
| CC=CC1=CC=CC(=C2C(=O)CNC2=O)O1 [Compound 6, E/Z-vermelhotin] | 0.0796 ± 0.0957 mM | 0.6 and 0.56 | 0.0796 ± 0.0001 mM | 0.0794 mM | LC50 (ICR mice): higher than 5,000 mg/kg; type of inhibition (PTP1B [1]): competitive parabolic inhibition; VMAX (PTP1B [1]): 24.7 mM/min; Ki (PTP1B [1]; [6]): 31 µM; Ki (PTP1B [1]; parabolic competitive model (Eq. 4), second inhibitor molecule, read-out: KIC2): 20 µM |
| COC(=O)/C(C)=C\CC[C@H](C)[C@@H]1CC[C@]2(C)C3=CCC4C(C)(C)C(=O)CC[C@]4(C)C3CC[C@@]12C (stereo partly shown) [Compound 86, Methyl ester of masticadienonic acid] | 0.325 ± 0.00894 mM | 1.2 | 0.3245 ± 1e-06 mM | 0.324 mM | – |
| CC(=CCCC(C)C1CCC2(C)C3=C(CCC12C)C1(C)CCC(=O)C(C)(C)C1CC3)C(=O)O (stereo not shown) [Compound 89, Isomasticadienonic acid] | 0.419 ± 0.00938 mM | 1.3 and 1.28 | 0.419 ± 1e-05 mM | 0.417 mM | – |
| CC(=O)OCC(C)C1CCC2(C)C1CCC1(C)C2CCC2C3(C)CCCC(C)(C)C3CCC21C (stereo not drawn) [Compound 90, 21-α-H-Hopane acetate] | – | 1.6 and 1.61 | 0.8839 ± 0.0002 mM | 0.891 mM | IC50 (hPTP1B1-400; [7]): 0.884 ± 0.213 mM |
| COc1cc(CCc2ccc(OC)c(OC)c2)cc(OC)c1 [Compound 91, 3,3',4',5-Tetramethoxybibenzyl] | – | 1.3 | – | – | IC50 (hPTP1B1-400; IC50 (μM), enzyme 66 nM, 4-NP 0.125 mM, Tris-HCl pH 6.8, 20 min, room temperature): 0.4195 ± 6e-06 mM; IC50 (hPTP1B1-400; LOGx0 of the IC50 curve, DoseResp model fit, Origin 8.0, axis C (mM)): 0.42 ± 0.00629 mM; IC50 (hPTP1B1-400; pIC50, negative log of the IC50 in Molar): 0.417 mM |
| CC1(C)C=Cc2cc3ccc(=O)oc3cc2O1 [Compound 93, Xanthyletin] | – | 1.6 | 0.8646 ± 0.00015 mM | 0.871 mM | IC50 (hPTP1B1-400; [7]): 0.865 ± 0.148 mM |
| COc1c2c(cc3oc(C)cc(=O)c13)OC(C)(C)[C@H](O)C2 [Compound 94, (+)-5-Methoxyhamaudol] | – | 1.1 | 0.2985 ± 0.00015 mM | – | IC50 (hPTP1B1-400; [7]): 0.298 ± 0.146 mM; pIC50 (hPTP1B1-400; [8]): 3.53 |
| C=CC(C)(C)C12CC3(O)c4nc5ccccc5c(=O)n4C(C(C)C)C(=O)N3C1N(C(C)=O)c1ccccc12 (stereo not shown) [Compound 96, Albolutein A] | – | -0.1 | 0.0191 ± 0.0014 mM | 0.0191 mM | – |
| C=CC(C)(C)[C@@]12Nc3ccccc3[C@]1(O)C[C@@]1(O)c3nc4ccccc4c(=O)n3[C@@H](C(C)C)C(=O)N12 [Compound 97, Albolutein B] | – | 0.1 | 0.0258 ± 0.0258 mM | – | pIC50 (hPTP1B1-400; [8]): 4.59 |
| Cc1cc(-c2c3ccccc3c(Br)c3sc(C)c(C)c23)cc(C)c1O[C@H](Cc1ccccc1)C(=O)O [E, ertiprotafib] | – | – | – | – | pIC50 (PTP1B [2]): 4.70 |
| CC(C)[C@@H](CC[C@@H](C)[C@H]1CC[C@H]2[C@@H]3[C@H](O)C[C@H]4C[C@@H](NCCCNCCCCNCCCN)CC[C@]4(C)[C@H]3CC[C@]12C)OS(=O)(=O)O [T, trodusquemine] | – | – | – | – | pIC50 (PTP1B [2]): 6.0 |
| Albolutein C [Compound 98] | – | 0.8 | 0.13 ± 0.0026 mM | – | pIC50 (hPTP1B1-400; [8]): 3.89 |
| Calein A [Compound 46] | 0.234 ± 0.0196 mM | 1.0 | 0.2345 ± 2e-05 mM | – | pIC50 (hPTP1B1-400; [8]): 3.63 |
